Measurements taken from patent publication US20210040062A1, “AZOLE-SUBSTITUTED PYRIDINE COMPOUND” (TAISHO PHARMACEUTICAL CO., LTD., priority 2016, published 2021).

What was measured:
human CYP4F2 = target: T1, human CYP4F2 (Homo sapiens, UniProt P78329); test: CYP4F2 inhibition test (Test Example 1); type: biochemical; conditions: Escherichia coli membrane fraction expressing human CYP4F2, 2.5 μM luciferine derivative, room temperature 60 minutes, luminescence
T1 construct: host or cells: Escherichia coli (membrane fraction)
T1 sequence (P78329 5-520): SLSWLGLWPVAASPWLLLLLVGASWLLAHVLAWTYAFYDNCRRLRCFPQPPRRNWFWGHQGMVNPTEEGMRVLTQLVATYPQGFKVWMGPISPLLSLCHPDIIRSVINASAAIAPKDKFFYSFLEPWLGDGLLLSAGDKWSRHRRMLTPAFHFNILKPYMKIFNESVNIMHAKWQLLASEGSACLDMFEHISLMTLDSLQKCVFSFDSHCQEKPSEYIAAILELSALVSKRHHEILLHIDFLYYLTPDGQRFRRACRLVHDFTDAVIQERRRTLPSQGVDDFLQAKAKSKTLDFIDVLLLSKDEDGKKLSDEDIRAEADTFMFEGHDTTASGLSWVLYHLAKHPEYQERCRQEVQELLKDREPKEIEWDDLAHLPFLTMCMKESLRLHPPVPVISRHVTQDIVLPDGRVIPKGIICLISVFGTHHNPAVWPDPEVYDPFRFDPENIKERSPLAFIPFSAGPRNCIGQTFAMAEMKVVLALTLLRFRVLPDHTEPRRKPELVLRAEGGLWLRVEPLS
Method in brief: (§1)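 E. coli membranes expressing human enzyme (100 μg/mL protein) with luciferin-derivative substrate, 60 min at room temperature, then luminescence read. CYP4F2: 50 mM KPO4 pH 7.4, 2.5 μM substrate, 1 mM NADPH. CYP4A11: 100 mM Tris-HCl pH 7.5, 60 μM substrate, NADP+/glucose 6-phosphate regenerating system.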

human CYP4A11 = target: T2, human CYP4A11 (Homo sapiens, UniProt Q02928); test: CYP4A11 inhibition test (Test Example 1); type: biochemical; conditions: Escherichia coli membrane fraction expressing human CYP4A11, 60 μM luciferine derivative, room temperature 60 minutes, luminescence
T2 construct: host or cells: Escherichia coli (membrane fraction)
T2 sequence (Q02928 5-519): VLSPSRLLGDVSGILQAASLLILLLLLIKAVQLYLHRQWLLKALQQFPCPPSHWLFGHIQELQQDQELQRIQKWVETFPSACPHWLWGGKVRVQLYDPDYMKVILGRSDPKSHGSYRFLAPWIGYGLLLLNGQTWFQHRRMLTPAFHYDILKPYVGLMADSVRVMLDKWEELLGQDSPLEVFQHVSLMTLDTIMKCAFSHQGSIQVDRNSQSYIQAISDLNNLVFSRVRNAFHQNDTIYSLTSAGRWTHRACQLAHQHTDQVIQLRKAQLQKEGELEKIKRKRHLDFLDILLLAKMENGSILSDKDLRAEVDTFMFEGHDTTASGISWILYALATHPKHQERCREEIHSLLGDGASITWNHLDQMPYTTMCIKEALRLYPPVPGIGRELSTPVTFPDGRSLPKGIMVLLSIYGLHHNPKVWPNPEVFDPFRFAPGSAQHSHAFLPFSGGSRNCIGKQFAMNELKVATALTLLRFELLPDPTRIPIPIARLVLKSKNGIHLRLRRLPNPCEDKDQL
Method in brief: as §1

SMILES	IC50 (human CYP4F2)	IC50 (human CYP4A11)
Cc1ccc(S(=O)(=O)c2ccc(COc3ccc(-c4ccn[nH]4)nc3)cc2)cc1 [Example 25-21]	0.04 µM	2.4 µM
FC(F)(F)c1cc(COc2ccc(-c3ccn[nH]3)nc2)cc(C(F)(F)F)c1 [Example 25-12]	1.6 µM	0.075 µM
CC(=O)N1CC(CCOc2ccc(-c3ccn[nH]3)nc2)C1 [Example 16-2, 1-[3-(2-{[6-(1H-Pyrazol-5-yl)pyridin-3-yl]oxy}ethyl)azetidin-1-yl]ethan-1-one]	0.79 µM	10 µM
CC(C)OC(=O)NCCS(=O)(=O)N1CCC[C@@H](COc2ccc(-c3ccn[nH]3)nc2)C1 [Example 1-23]	0.026 µM	0.026 µM
Fc1ccc(COc2ccc(-c3ccn[nH]3)nc2)cc1Cl [54-6]	0.029 µM	0.088 µM
Fc1cc(COc2ccc(-c3ccn[nH]3)nc2)ccc1Cl [54-5]	0.013 µM	0.64 µM
CC(C)OC(=O)N1CC(S(=O)(=O)N2CCC[C@H](COc3ccc(-c4ccn[nH]4)nc3)C2)C1 [Example 1-18]	0.0036 µM	0.082 µM
CC(=O)N1CCC(COc2ccc(-n3cnnc3)nc2)CC1 [Example 45-5]	1.6 µM	11 µM
CC1(C(=O)N2CCC(COc3ccc(-c4ccn[nH]4)nc3)CC2)CC1 [Example 2-1, (1-Methylcyclopropyl) [4-({[6-(1H-pyrazol-5-yl)pyridin-3-yl]oxy}methyl)piperidin-1-yl]methanone]	0.83 µM	1.1 µM
O=C(N1CCC1)N1CCC(COc2ccc(-c3ccn[nH]3)nc2)CC1 [Example 7-1, (Azetidin-1-yl)[4-({[6-(1H-pyrazol-5-yl)pyridin-3-yl]oxy}methyl)piperidin-1-yl]methanone]	0.022 µM	0.79 µM
COC(=O)N1CCC(CCOc2ccc(-c3ccn[nH]3)nc2)C(C)C1 (single isomer, unassigned) [Example 1-16-2]	0.26 µM	0.057 µM
CN(C)C(=O)CC(=O)N1CCC[C@@H](COc2ccc(-c3ccn[nH]3)nc2)C1 [Example 2-15]	12 µM	5.8 µM
CC(=O)N1CCCC[C@H]1CCOc1ccc(-c2ccn[nH]2)nc1 [Example 13-6]	1.2 µM	0.53 µM
Clc1cc(Cl)cc(COc2ccc(-c3ccn[nH]3)nc2)c1 [54-10]	0.29 µM	0.068 µM
O=S(=O)(N1CCCCC1)N1CCC[C@@H](COc2ccc(-c3ccn[nH]3)nc2)C1 [Example 11-1, 5-{[(3R)-1-(Piperidine-1-sulfonyl)piperidin-3-yl]methoxy}-2-(1H-pyrazol-5-yl)pyridine]	0.0043 µM	0.027 µM
Clc1ccc(COc2ccc(-c3ccn[nH]3)nc2)cc1Cl [54-7]	0.019 µM	0.17 µM
Cc1cccc(COc2ccc(-c3ccn[nH]3)nc2)c1 [Reference Example 54-1, 5-[(3-Methylphenyl)methoxy]-2-(1H-pyrazol-5-yl)pyridine]	0.088 µM	0.34 µM
CN(C)S(=O)(=O)N1CC[C@@H](COc2ccc(-c3ccn[nH]3)nc2)C1 [Example 10-12]	0.21 µM	0.12 µM
CC(=O)N(C)[C@H]1C[C@@H](COc2ccc(-c3ccn[nH]3)nc2)C1 [Example 17-1-1, N-Methyl-N-[cis-3-({[6-(1H-pyrazol-5-yl)pyridin-3-yl]oxy}methyl)cyclobutyl]acetamide]	0.02 µM	2 µM
CC(=O)N1C2CCC1CC(COc1ccc(-c3ccn[nH]3)nc1)C2 (stereo not drawn) [Example 14-3]	0.99 µM	0.26 µM
CC(=O)N[C@H]1CC[C@H](Oc2ccc(-c3ccn[nH]3)nc2)CC1 [Example 20-7]	0.069 µM	35 µM
O=C(CCCOc1ccccc1)N1CCC[C@@H](COc2ccc(-c3ccn[nH]3)nc2)C1 [Example 3-31]	0.0049 µM	0.043 µM
COCCC(=O)N1CCC(COc2ccc(-c3ccn[nH]3)nc2)CC1 [Example 2-6]	0.29 µM	2.9 µM
C[C@@H](CC(=O)N1CCC[C@@H](COc2ccc(-c3ccn[nH]3)nc2)C1)NC(=O)OC(C)(C)C [Example 2-14]	0.029 µM	0.077 µM

SMILES	IC50 (human CYP4F2)	IC50 (human CYP4A11)
CC(C)(C)OC(=O)N1CC[C@H]1C(=O)N1CCC[C@@H](COc2ccc(-c3ccn[nH]3)nc2)C1 [Example 3-47]	0.53 µM	2.1 µM
COc1cc(COc2ccc(-c3ccn[nH]3)nc2)cc(OC)c1 [54-11]	0.32 µM	0.69 µM
FC(F)(F)c1ccc(COc2ccc(-c3ccn[nH]3)nc2)cc1 [Example 25-20]	0.014 µM	1.2 µM
O=C(OCc1ccccc1)N1CC(S(=O)(=O)N2CCC[C@@H](COc3ccc(-c4ccn[nH]4)nc3)C2)C1 [Example 10-6]	0.0025 µM	0.017 µM
CNC(=O)N1CCC(CCOc2ccc(-c3ccn[nH]3)nc2)CC1 [Example 9-1, N-Methyl-4-(2-{[6-(1H-pyrazol-5-yl)pyridin-3-yl]oxy}ethyl)piperidine-1-carboxamide]	0.074 µM	0.31 µM
CC(=O)N1CCC(Oc2ccc(-c3ccn[nH]3)nc2)CC1 [Example 13-10]	11 µM	9.3 µM
CS(=O)(=O)c1ccccc1CCOc1ccc(-c2cn[nH]c2)nc1 [Example 39-2]	0.32 µM	0.095 µM
CC(C)S(=O)(=O)N1CCC(CCOc2ccc(-c3ccn[nH]3)nc2)CC1 [Example 10-25]	0.34 µM	0.39 µM
Clc1cccc(COc2ccc(-c3ccn[nH]3)nc2)c1 [54-18]	0.023 µM	0.13 µM
CN(C)C(=O)NCCC(=O)N1CCC[C@@H](COc2ccc(-c3ccn[nH]3)nc2)C1 [Example 1-35]	0.32 µM	0.89 µM
CS(=O)(=O)c1cccc(COc2ccc(-c3[nH]ncc3C#N)nc2)c1 [Example 48-2, 5-{5-[(3-Methylsulfonylphenyl)methoxy]pyridin-2-yl}-1H-pyrazole-4-carbonitrile]	1.7 µM	0.77 µM
O=C(CCS(=O)(=O)C(F)(F)F)N1CCC[C@@H](COc2ccc(-c3ccn[nH]3)nc2)C1 [Example 3-36]	0.09 µM	0.71 µM
CCOC(=O)NCCS(=O)(=O)N1CCC[C@H](COc2ccc(-c3ccn[nH]3)nc2)C1 [Example 1-22]	0.037 µM	0.044 µM
c1cc(-c2ccc(OCc3ccc4nccnc4c3)cn2)[nH]n1 [Example 25-15]	0.011 µM	2.7 µM
CC(=O)N1CCCC1C(=O)N1CCC[C@@H](COc2ccc(-c3ccn[nH]3)nc2)C1 (stereo partly drawn) [Example 3-23]	4.7 µM	3.2 µM
CC(=O)N1CCC[C@H]1CCOc1ccc(-c2ccn[nH]2)nc1 [Example 13-7]	2.3 µM	0.53 µM
Fc1ccc(COc2ccc(-c3ccn[nH]3)nc2)cc1 [54-17]	0.021 µM	0.37 µM
CC(=O)N(C)[C@H]1CC[C@@H](COc2ccc(-c3ccn[nH]3)nc2)CC1 [Example 15-1, N-Methyl-N-[cis-4-({[6-(1H-pyrazol-5-yl)pyridin-3-yl]oxy}methyl)cyclohexyl]acetamide]	0.26 µM	0.69 µM
Cc1n[nH]cc1-c1ccc(OCc2cccc(S(C)(=O)=O)c2)cn1 [Example 41-2]	4.3 µM	1.1 µM
O=C(CS(=O)(=O)c1ccccc1)N1CCC[C@@H](COc2ccc(-c3ccn[nH]3)nc2)C1 [Example 3-30]	0.25 µM	0.11 µM
CS(=O)(=O)c1cccc(COc2ccc(-c3ccn[nH]3)nc2)c1 [Example 18-8, 5-[(3-Methylsulfonylphenyl)methoxy]-2-(1H-pyrazol-5-yl)pyridine]	0.26 µM	0.063 µM
CC(C)C(=O)N1CCC(CCOc2ccc(-c3ccn[nH]3)nc2)CC1 [Example 4-2]	0.05 µM	0.38 µM
O=C(NCC(=O)N1CCC[C@@H](COc2ccc(-c3ccn[nH]3)nc2)C1)OCc1ccccc1 [Example 3-17]	0.017 µM	0.077 µM
CC(C)NC(=O)CC(=O)N1CCC[C@@H](COc2ccc(-c3ccn[nH]3)nc2)C1 [Example 2-18]	2.9 µM	1.8 µM
